# Patent US9809799B2, “Methods for inactivating viruses during a protein purification process” (priority 2012, dated 2017)
# Experiments:
# X-MuLV = X-MuLV virus inactivation using caprylic acid and detergents in test tubes; assay type: cell-based, xenotropic murine leukemia virus; conditions: for time for complete virus inactivation: clarified cell culture
# [1] = test system: respiratory syncytial virus (RSV); conditions: 0.5%, 4° C., within four hours; cited from earlier work
# [2] = test system: Friend murine leukemia virus (FrMuLV); conditions: 0.5%, 4° C., within four hours; cited from earlier work
# [3] = test system: Vesicular stomatitis virus (VSV); conditions: cited from earlier work
# [4] = test system: Herpes simplex virus-1 (HSV-1); conditions: 20° C., cell culture harvest broth; cited from earlier work
molecule,measurement,setting,value
Triton X,X-MuLV virus inactivation (LRV),"X-MuLV; MAb05 cell culture, 0.5%, time 0 min",0
same,X-MuLV virus inactivation (LRV),"X-MuLV; MAb05 cell culture, 0.5%, time 1 min",≧3.1
same,X-MuLV virus inactivation (LRV),"X-MuLV; MAb05 cell culture, 0.5%, time 5 min",≧3.1
same,X-MuLV virus inactivation (LRV),"X-MuLV; MAb05 cell culture, 0.5%, time 10 min",≧3.1
same,X-MuLV virus inactivation (LRV),"X-MuLV; MAb05 cell culture, 0.5%, time 20 min",≧3.1
same,X-MuLV virus inactivation (LRV),"X-MuLV; Pure MAb07, 0.5%, time 0 min",0
same,X-MuLV virus inactivation (LRV),"X-MuLV; Pure MAb07, 0.5%, time 1 min",≧3.1
same,X-MuLV virus inactivation (LRV),"X-MuLV; Pure MAb07, 0.5%, time 5 min",≧3.1
same,X-MuLV virus inactivation (LRV),"X-MuLV; Pure MAb07, 0.5%, time 10 min",≧3.1
same,X-MuLV virus inactivation (LRV),"X-MuLV; Pure MAb07, 0.5%, time 20 min",≧3.1
same,time for complete virus inactivation,X-MuLV; 0.5%,complete virus inactivation after one minute
same,Log 10 reduction values,[1],> 5.4
same,Log 10 reduction values,[2],> 3.8
"CCCCCCCC(=O)O [Caprylate, caprylic acid]",X-MuLV virus inactivation (LRV),"X-MuLV; MAb05 cell culture, 20 mM pH 5.5, time 0 min",0
same,X-MuLV virus inactivation (LRV),"X-MuLV; MAb05 cell culture, 20 mM pH 5.5, time 1 min",2.63
same,X-MuLV virus inactivation (LRV),"X-MuLV; MAb05 cell culture, 20 mM pH 5.5, time 5 min",≧3.8
same,X-MuLV virus inactivation (LRV),"X-MuLV; MAb05 cell culture, 20 mM pH 5.5, time 10 min",≧3.8
same,X-MuLV virus inactivation (LRV),"X-MuLV; MAb05 cell culture, 20 mM pH 5.5, time 20 min",≧3.8
same,X-MuLV virus inactivation (LRV),"X-MuLV; MAb05 cell culture, 200 mM pH 7, time 0 min",0
same,X-MuLV virus inactivation (LRV),"X-MuLV; MAb05 cell culture, 200 mM pH 7, time 1 min",2.91
same,X-MuLV virus inactivation (LRV),"X-MuLV; MAb05 cell culture, 200 mM pH 7, time 5 min",≧3.8
same,X-MuLV virus inactivation (LRV),"X-MuLV; MAb05 cell culture, 200 mM pH 7, time 10 min",≧3.8
same,X-MuLV virus inactivation (LRV),"X-MuLV; MAb05 cell culture, 200 mM pH 7, time 20 min",≧3.8
same,X-MuLV virus inactivation (LRV),"X-MuLV; Pure MAb07, 20 mM pH 5.5, time 0 min",0
same,X-MuLV virus inactivation (LRV),"X-MuLV; Pure MAb07, 20 mM pH 5.5, time 1 min",≧3.1
same,X-MuLV virus inactivation (LRV),"X-MuLV; Pure MAb07, 20 mM pH 5.5, time 5 min",≧3.1
same,X-MuLV virus inactivation (LRV),"X-MuLV; Pure MAb07, 20 mM pH 5.5, time 10 min",≧3.1
same,X-MuLV virus inactivation (LRV),"X-MuLV; Pure MAb07, 20 mM pH 5.5, time 20 min",≧3.1
same,X-MuLV virus inactivation (LRV),"X-MuLV; Pure MAb07, 200 mM pH 7, time 0 min",0
same,X-MuLV virus inactivation (LRV),"X-MuLV; Pure MAb07, 200 mM pH 7, time 1 min",≧3.1
same,X-MuLV virus inactivation (LRV),"X-MuLV; Pure MAb07, 200 mM pH 7, time 5 min",≧3.1
same,X-MuLV virus inactivation (LRV),"X-MuLV; Pure MAb07, 200 mM pH 7, time 10 min",≧3.1
same,X-MuLV virus inactivation (LRV),"X-MuLV; Pure MAb07, 200 mM pH 7, time 20 min",≧3.1
same,time for complete virus inactivation,X-MuLV; both pH and salinities,requires a minimum of five minutes
same,inactivation,"[3]; 5° C., after 120 minutes",only partial inactivation
same,time to complete inactivation,"[3]; 20° C., cell culture harvest broth",less than 60 minutes
same,time to complete inactivation,[4],less than 60 minutes
